Patent US20090170869A1, “PIPERAZINE DERIVATIVE HAVING AFFINITY FOR THE HISTAMINE H3 RECEPTOR” (priority 2007, published 2009)

How the values were obtained:
[1] = target: T1, brain histamine H3 receptor (Rattus norvegicus, UniProt Q9QYN8); assay: Rat ex vivo binding studies - rat brain histamine H3 receptor occupancy ([3H]-R-α-methylhistamine); type: in vivo; conditions: for inhibition of [3H]-R-α-methylhistamine specific binding to the H3 receptor (surrogate for rat brain H3 receptor occupancy): 10 mg/kg oral; for specific binding of [3H]-R-α-methylhistamine to the H3 receptor: rats n=3, 10 mg/kg oral, mean ± SEM
T1 construct: from tissue; host or cells: cerebral cortex homogenate of adult male Lister hooded rats
T1 sequence (Q9QYN8 whole entry): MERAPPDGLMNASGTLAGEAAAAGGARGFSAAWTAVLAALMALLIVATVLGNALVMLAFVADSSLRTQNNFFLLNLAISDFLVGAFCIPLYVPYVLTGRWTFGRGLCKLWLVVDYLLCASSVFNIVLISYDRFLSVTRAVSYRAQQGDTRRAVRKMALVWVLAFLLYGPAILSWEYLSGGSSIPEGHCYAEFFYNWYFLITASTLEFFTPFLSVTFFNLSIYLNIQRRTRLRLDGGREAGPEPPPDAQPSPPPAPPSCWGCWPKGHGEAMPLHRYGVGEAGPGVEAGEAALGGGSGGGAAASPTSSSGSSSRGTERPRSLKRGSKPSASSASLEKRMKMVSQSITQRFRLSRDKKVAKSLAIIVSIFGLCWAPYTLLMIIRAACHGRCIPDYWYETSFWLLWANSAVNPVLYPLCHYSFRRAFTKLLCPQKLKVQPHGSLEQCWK
Experimental: Ex vivo binding studies were carried out to determine brain histamine H3 receptor occupancy in rats at certain time points after oral administration of a test compound.
Adult male rats (Lister hooded 200-250 g, Charles River, UK) received vehicle (1% w/v aqueous methylcellulose) (control) or the test compound (10 mg/kg) by oral gavage (n=3 per group) and were sacrificed 1 or 4 hours following oral dosing. The 1 hour and 4 hour studies were not necessarily done on the same day. Terminal blood samples were collected and brains rapidly removed. Cerebral cortex tissue was dissected from half of each brain for ex vivo binding; the other half brain can be used for pharmacokinetic analysis of brain concentrations of each compound. All dissected tissue samples were snap-frozen in liquid nitrogen, and stored at −80° C. until use. The tissues were rapidly thawed and homogenised in approximately 30 volumes of ice cold assay reaction buffer. The assay reaction buffer contained 50 mM Tris-HCl (made up using Trizma pre-set crystals pH 7.7 @25° C., Sigma cat. No. T8068-250G) and 5 mM EDTA, with a final buffer pH of 7.2 to 7.8, usually about 7.4. The crude homogenate (600-800 μg/well) was then used to measure H3 receptor binding using [^3H]-R-α-methylhistamine as radioligand. Assays measuring total binding of [^3H]-R-α-methylhistamine consisted of 50 μl assay reaction buffer, 400 μl of homogenate (corresponding to 600-800 μg/well) and 50 μl of 2 nM R(−)α-Methyl[imidazole-2,5(n)-3H]histamine dihydrochloride ([^3H]-R-α-methylhistamine; specific activity, 24 Ci mmol^−1, Amersham Biosciences, catalogue no. TRK1017). Incubations with [^3H]-R-α-methylhistamine were for 45 min at 30° C. Non-specific binding of [^3H]-R-α-methylhistamine was determined in parallel using the same assay except that 50 μl of 10 μM imetit (an H3 receptor agonist, e.g. available from Tocris) was used instead of the 50 μl of assay reaction buffer. The experiments were terminated by rapid filtration through Whatman GF/B filters (pre-soaked in 0.3% v/v polyethyleneimine (PEI)), and then the filters were washed through with 4×5 ml of ice cold harvesting buffer. The harvesting buffer contained 50 mM Tris-HCl (from Trizma pre-set crystals pH 7.7 @ 25° C.) and 5 mM MgCl2, with a final buffer pH of 7.2 to 7.8, usually about 7.4. Filters were dried and added to vials each containing 4 ml Ultima Gold MV scintillation fluid (Hewlett Packard) and radioactivity determined by liquid scintillation spectrometry using a Packard Tri-Carb 2500TR liquid scintillation counter.
Specific binding of [^3H]-R-α-methylhistamine to the H3 receptor was determined by the subtraction of the value obtained for non-specific binding from the value obtained for total binding.
Protein concentrations were determined using the Bradford assay method (Bio-Rad
Protein Assay Dye Reagent Concentrate, catalogue no. 500-0006; from Bio-Rad Laboratories GmbH, Heidemannstrasse 164, 80939 Muenchen, Germany; or from Bio-Rad, York, UK) with bovine serum albumin as a standard. Specific radioactivity in the samples was corrected for protein (i.e. per microgram of protein).
The specific binding of [^3H]-R-α-methylhistamine to the H3 receptor is expressed as a mean (n=3 rats)±SEM (standard error of the mean), as a percentage of vehicle-treated control animals. Data is also expressed as inhibition of [^3H]-R-α-methylhistamine specific binding to the H3 receptor, as a surrogate measure for H3 receptor occupancy by the test compound, calculated as 100% minus the % mean specific binding of [^3H]-R-α-methylhistamine to the H3 receptor.

[2] = Plasma clearance in the pig-PET study; type: in vivo; conditions: Yorkshire-Landrace, iv, 50 ug/kg, 50 micrograms/kg i.v.
male Sprague Dawley rats = assay: Toxicity Study 1: 7-day oral repeat-dose study in male Sprague Dawley rats; type: in vivo, rat; conditions: for tolerability: male rats
Experimental: Three male rats were added at each non-zero dose level for toxicokinetic evaluation. All doses and concentrations, including analyte concentration in plasma, are expressed in terms of the parent “free base” compound.
The following endpoints/parameters were evaluated for toxicology animals: clinical observations, body weights, food consumption measurements, selected haematology and selected clinical chemistry results, liver weights, selected macroscopic and microscopic observations, and selected hepatic gene expression analysis. Toxicokinetic evaluation (serial profiling) was performed on samples collected from satellite animals on Days 1 and 7. For male rats dosed at 30 or 100 mg/kg/day, histopathology observations carried out were on kidneys, mesentery and mandibular lymph node only. For male rats dosed at 0 mg/kg/day (control) and 300 mg/kg/day, histopathology observations carried out were on adrenals, brain, heart, kidneys, liver, lung, mandibular lymph node, mesentery, stomach, testes, and thymus (except that mandibular lymph node observations were for 0 mg/kg/day dosed rats only).

Sprague Dawley rats = assay: Toxicity Study 2: 7-day oral dose range-finding study in Sprague Dawley rats; type: in vivo, rat
Experimental: Three male rats and three female rats were added at 600 mg/kg/day and 3 female rats were added at 300 mg/kg/day for toxicokinetic evaluation.
The following endpoints/parameters were evaluated for toxicology animals: clinical observations, body weights, food consumption, selected haematology, selected clinical chemistry, liver weights, and selected macroscopic and microscopic observations. Toxicokinetic evaluation was performed on samples collected on Day 1 (300 and 600 mg/kg/day dosing) and Day 7 (300 mg/kg/day dosing only).

H3 receptor = H3 receptor (Sus scrofa, UniProt A0A287B9V8); assay: Pig-PET study with [11C]GSK189254: pig brain H3 receptor occupancy over time and kon-koff limited model; conditions: 50 micrograms/kg i.v.; for Measured H3 receptor occupancy @ 10 min: 10 minutes post administration; for Measured H3 receptor occupancy @ 2.5 h: 2.5 hours post administration; for Measured H3 receptor occupancy @ 6 h: 6 hours post administration; for Kd: Kd (koff/kon)
H3 receptor, sequence (A0A287B9V8 1-448): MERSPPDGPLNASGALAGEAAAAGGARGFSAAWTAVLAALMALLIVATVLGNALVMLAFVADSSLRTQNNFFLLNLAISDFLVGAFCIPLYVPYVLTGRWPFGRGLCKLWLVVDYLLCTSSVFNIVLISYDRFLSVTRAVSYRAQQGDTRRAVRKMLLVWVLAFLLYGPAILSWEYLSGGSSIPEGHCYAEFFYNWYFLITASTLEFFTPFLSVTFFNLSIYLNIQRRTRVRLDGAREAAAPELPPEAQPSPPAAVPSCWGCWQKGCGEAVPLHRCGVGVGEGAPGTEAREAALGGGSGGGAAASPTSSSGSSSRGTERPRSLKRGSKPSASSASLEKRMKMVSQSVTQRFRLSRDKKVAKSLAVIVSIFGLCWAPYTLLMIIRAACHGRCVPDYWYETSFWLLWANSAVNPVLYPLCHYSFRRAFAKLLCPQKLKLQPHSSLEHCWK

[3] = rat, in vivo, po, 300 mg/kg/day
[4] = mean ± standard deviation, n=3 pigs

## CC(C)N1CCN(C(=O)c2ccc(OC3CCOCC3)cc2)CC1.Cl [Example E1]
[1]; 1 hour after dosing
  inhibition of [3H]-R-α-methylhistamine specific binding to the H3 receptor (surrogate for rat brain H3 receptor occupancy): about 60%
[1]; 4 hours after dosing
  inhibition of [3H]-R-α-methylhistamine specific binding to the H3 receptor (surrogate for rat brain H3 receptor occupancy): about 16%
[1]; sacrificed 1 hour after dosing
  specific binding of [3H]-R-α-methylhistamine to the H3 receptor: 40%+2%
[1]; sacrificed 4 hours after dosing
  specific binding of [3H]-R-α-methylhistamine to the H3 receptor: 84%+6%
[2]; average model (from average plasma data)
  clearance: 38.3 mL/min
[2]; mean of pigs 1-3
  clearance: 41.7 mL/min
[2]; pig 1
  clearance: 48.3 mL/min
[2]; pig 2
  clearance: 50 mL/min
[2]; pig 3
  clearance: 30 mL/min
Male Sprague Dawley rats; 300 mg/kg/day oral for 7 days (measured as free base)
  tolerability: moderately well tolerated
Male Sprague Dawley rats; 30 or 100 mg/kg/day oral for 7 days (measured as free base)
  tolerability: well tolerated
Male Sprague Dawley rats; [3]
  food consumption: ca. 0.80 × pretreatment
  periarterial inflammatory cell infiltrate in the hilar region of the kidneys: minimal in severity, was noted in the hilar region of the kidneys of all four male rats
Sprague Dawley rats; conclusion from Toxicity Studies 1 and 2: male and female rats, 7 days oral, doses up to 300 mg/kg/day
  tolerability: well tolerated or moderately well tolerated
Sprague Dawley rats; female rats, 300 mg/kg/day oral for 7 days (measured as free base)
  tolerability: moderately well tolerated
Sprague Dawley rats; male or female rats, 600 mg/kg/day oral (only 2 days)
  tolerability: not tolerated
Sprague Dawley rats; [3]
  certain haematology and other clinical chemistry parameters: increased
  clinical signs: chewing movements, rubbing chin on the cage floor, and certain other clinical signs
  glandular dilation of the fundic region of the stomach: of minimal severity, was observed in most female rats
H3 receptor; n=3 pigs, preliminary measurements
  reduction in pig brain H3 receptor occupancy as compared to salt B: generally faster reduction
H3 receptor; [4]
  Measured H3 receptor occupancy @ 10 min: 58% ± 4%
  Measured H3 receptor occupancy @ 2.5 h: 30% ± 11%
  Measured H3 receptor occupancy @ 6 h: 14% ± 14%
H3 receptor; pig 1
  Measured H3 receptor occupancy @ 10 min: 61%
  Measured H3 receptor occupancy @ 2.5 h: 43%
  Measured H3 receptor occupancy @ 6 h: 30%
H3 receptor; pig 2
  Measured H3 receptor occupancy @ 10 min: 54%
  Measured H3 receptor occupancy @ 2.5 h: 24%
  Measured H3 receptor occupancy @ 6 h: 7%
H3 receptor; pig 3
  Measured H3 receptor occupancy @ 10 min: 58%
  Measured H3 receptor occupancy @ 2.5 h: 22%
  Measured H3 receptor occupancy @ 6 h: 5%
H3 receptor; average model (from average plasma data and average occupancy)
  Kd: 9.14 nM
H3 receptor; mean of pigs 1-3
  Kd: 9.08 nM
H3 receptor; pig 1, in vivo PK/RO model
  Kd: 4.47 nM
H3 receptor; pig 2, in vivo PK/RO model
  Kd: 9.35 nM
H3 receptor; pig 3, in vivo PK/RO model
  Kd: 13.4 nM
